{"source": "patent US6770674B1", "about": "“Mollusc repellent” (priority 1998, dated 2004)", "key": {"Human": {"system": "Human", "details": "oral; cited from earlier work"}, "juvenile Helix aspersa": {"system": "juvenile Helix aspersa", "experiment": "Attractancy/repellency test, sectorised filter technique of Bowen and Antoine", "format": "in vivo", "design": "key to Final Position: R: roof of the container; T: test sector; C: control sector", "details": "for % Sector Eaten Control / % Sector Eaten Test: overnight; for repellency to snails (summary in words): arena trials, Helix aspersa", "method": "One sector of the filter paper was used as the control and this was moistened with distilled water (1 ml). The other half was moistened with the test compound. […] The paper containing the copper oxalate was moistened with water after the addition of the chemical.\nFilter sectors were placed on the lid of a plastic tub. The tub was inverted and was used to make a closed test arena. A small gap of 2 mm was left between the two filter sectors so as to prevent mixing of the test paper with the control. One juvenile Helix aspersa was introduced to the control sector and was allowed to remain in the arena overnight.\nAttractancy/repellency was detected by dusting the filter paper with charcoal to reveal the slug trails. The results were quantified by placing a transparent grid over the test sectors and measuring the area covered by snail trails. Any phagostimulatory effect of the test compound was indicated by the consumption of the treated paper."}, "[1]": {"system": "slug, Deroceras reticulatum", "experiment": "Protection of wheat and pea seeds compared to BAYSOL and […] (Example 3)", "format": "in vivo", "method": "In the following experiment, the efficacy of copper oxalate for the protection of seeds was tested and compared to BAYSOL® and […]®. Seeds were coated with an aqueous suspension of copper oxalate, dried and fed to the slug, Deroceras reticulatum."}, "snail, Cernuella virgata": {"system": "snail, Cernuella virgata", "experiment": "Repellency of copper oxalate in a PVA coating (paint) composition on paper towel (Example 4)", "format": "in vivo", "from_the_text": "In the following experiment, the repellency of copper oxalate was investigated when incorporated in a paint composition. In this example, the carrier used was a common aqueous PVA solution sold in Australia under the brand name of Bond Crete.\nThirty-three 1 liter containers were used each with 3 layers of paper towel covering the bottom of the container. Half of the uppermost surface of each of the paper towels was coated with a solution made from 1 part copper oxalate: 10 parts water: 1 part PVA emulsion. This coating was applied at a rate of about 2 ml per 100 cm2 and allowed to dry. The towel was then moistened with approximately 20 ml of water. One snail, Cernuella virgata, was placed in the centre of the paper towels at the border of the coated and the uncoated half in each container. […] The snails consumed some of the untreated paper. […] After 7 days, the number of snails on the treated and untreated sections of the paper towel were counted, together with the number on the sides and lid of the container."}, "[2]": {"system": "slug, Deroceras reticulatum", "experiment": "Protection of coated seeds fed to slugs (Example 2)", "format": "in vivo", "details": "for % Seeds damaged Broad beans After 7 days: coated broad beans; for % Seeds damaged Pea seeds After 5 days / % Seeds damaged Pea seeds After 7 days: coated pea seeds; for % Seeds damaged Wheat seeds After 5 days / % Seeds damaged Wheat seeds After 7 days: coated wheat seeds", "from_the_text": "In the following experiment, various seeds were coated with copper oxalate and ferric potassium oxalate, respectively and fed to the slug, Deroceras reticulatum. The damage to these seeds was compared to damage to control seeds, which were left untreated."}, "Rat": {"system": "Rat", "details": "oral; cited from earlier work"}, "[3]": {"details": "after 7 days, 33 containers with one snail each, same coating"}}, "note": "“And” between values parts separate entries of the source, which are not always exact repeats. Equal values may be shown once."}
{"molecule": "[Cu+2].[OH-].[OH-]", "note": "[Copper hydroxide]", "values": [{"measurement": "LD50 (Human)", "setting": "Human", "result": 200, "unit": "mg/kg"}]}
{"molecule": "O=C([O-])C(=O)[O-].[Cu+2]", "note": "[Copper oxalate, copper oxalate]", "values": [{"measurement": "% Sector Eaten Control", "setting": "juvenile Helix aspersa; 1.61 mg/cm2, control sector of same arena", "result": 4, "unit": "%"}, {"measurement": "Final Position", "setting": "juvenile Helix aspersa; 1.61 mg/cm2, overnight", "result": "R"}, {"measurement": "% Sector Eaten Test", "setting": "juvenile Helix aspersa; 1.61 mg/cm2, test sector", "result": 0, "unit": "%"}, {"measurement": "% Covered Control", "setting": "juvenile Helix aspersa; 1.61 mg/cm2, trail cover of control sector of same arena", "result": 88, "unit": "%"}, {"measurement": "% Covered Test", "setting": "juvenile Helix aspersa; 1.61 mg/cm2, trail cover of test sector", "result": 4.4, "unit": "%"}, {"measurement": "% Sector Eaten Control", "setting": "juvenile Helix aspersa; 2.11 mg/cm2, control sector of same arena", "result": 5, "unit": "%"}, {"measurement": "Final Position", "setting": "juvenile Helix aspersa; 2.11 mg/cm2, overnight", "result": "R"}, {"measurement": "% Sector Eaten Test", "setting": "juvenile Helix aspersa; 2.11 mg/cm2, test sector", "result": 0, "unit": "%"}, {"measurement": "% Covered Control", "setting": "juvenile Helix aspersa; 2.11 mg/cm2, trail cover of control sector of same arena", "result": 71.1, "unit": "%"}, {"measurement": "% Covered Test", "setting": "juvenile Helix aspersa; 2.11 mg/cm2, trail cover of test sector", "result": 0, "unit": "%"}, {"measurement": "% Sector Eaten Control", "setting": "juvenile Helix aspersa; 2.43 mg/cm2, control sector of same arena", "result": 2, "unit": "%"}, {"measurement": "Final Position", "setting": "juvenile Helix aspersa; 2.43 mg/cm2, overnight", "result": "R"}, {"measurement": "% Sector Eaten Test", "setting": "juvenile Helix aspersa; 2.43 mg/cm2, test sector", "result": 0, "unit": "%"}, {"measurement": "% Covered Control", "setting": "juvenile Helix aspersa; 2.43 mg/cm2, trail cover of control sector of same arena", "result": 68.9, "unit": "%"}, {"measurement": "% Covered Test", "setting": "juvenile Helix aspersa; 2.43 mg/cm2, trail cover of test sector", "result": 0, "unit": "%"}, {"measurement": "% Sector Eaten Control", "setting": "juvenile Helix aspersa; 2.47 mg/cm2, control sector of same arena", "result": 5, "unit": "%"}, {"measurement": "Final Position", "setting": "juvenile Helix aspersa; 2.47 mg/cm2, overnight", "result": "R"}, {"measurement": "% Sector Eaten Test", "setting": "juvenile Helix aspersa; 2.47 mg/cm2, test sector", "result": 0, "unit": "%"}, {"measurement": "% Covered Control", "setting": "juvenile Helix aspersa; 2.47 mg/cm2, trail cover of control sector of same arena", "result": 86.7, "unit": "%"}, {"measurement": "% Covered Test", "setting": "juvenile Helix aspersa; 2.47 mg/cm2, trail cover of test sector", "result": 0, "unit": "%"}, {"measurement": "% Sector Eaten Control", "setting": "juvenile Helix aspersa; 3.19 mg/cm2, control sector of same arena", "result": 2, "unit": "%"}, {"measurement": "Final Position", "setting": "juvenile Helix aspersa; 3.19 mg/cm2, overnight", "result": "C"}, {"measurement": "% Sector Eaten Test", "setting": "juvenile Helix aspersa; 3.19 mg/cm2, test sector", "result": 0, "unit": "%"}, {"measurement": "% Covered Control", "setting": "juvenile Helix aspersa; 3.19 mg/cm2, trail cover of control sector of same arena", "result": 88, "unit": "%"}, {"measurement": "% Covered Test", "setting": "juvenile Helix aspersa; 3.19 mg/cm2, trail cover of test sector", "result": 0, "unit": "%"}, {"measurement": "% Sector Eaten Control", "setting": "juvenile Helix aspersa; 3.46 mg/cm2, control sector of same arena", "result": 1, "unit": "%"}, {"measurement": "Final Position", "setting": "juvenile Helix aspersa; 3.46 mg/cm2, overnight", "result": "R"}, {"measurement": "% Sector Eaten Test", "setting": "juvenile Helix aspersa; 3.46 mg/cm2, test sector", "result": 0, "unit": "%"}, {"measurement": "% Covered Control", "setting": "juvenile Helix aspersa; 3.46 mg/cm2, trail cover of control sector of same arena", "result": 66.7, "unit": "%"}, {"measurement": "% Covered Test", "setting": "juvenile Helix aspersa; 3.46 mg/cm2, trail cover of test sector", "result": 4.4, "unit": "%"}, {"measurement": "repellency to snails (summary in words)", "setting": "juvenile Helix aspersa", "result": "strongly repelled"}, {"measurement": "% Seeds damaged Pea seeds After 7 days", "setting": "[1]; pea seeds, 7 days", "result": 8, "unit": "%"}, {"measurement": "% Seeds damaged Wheat seeds After 9 days", "setting": "[1]; wheat seeds, 9 days", "result": 10, "unit": "%"}, {"measurement": "repellency in a coating composition (summary in words)", "setting": "snail, Cernuella virgata; PVA coating composition", "result": "functions effectively as a mollusc repellent"}, {"measurement": "No. of snails in area: On lid of container", "setting": "snail, Cernuella virgata; after 7 days, 33 containers with one snail each, coating 1 part copper oxalate: 10 parts water: 1 part PVA emulsion", "result": 1}, {"measurement": "No. of snails in area: On Treated half of paper", "setting": "snail, Cernuella virgata; [3]", "result": 8}, {"measurement": "No. of snails in area: On side of container", "setting": "snail, Cernuella virgata; [3]", "result": 1}, {"measurement": "No. of snails in area: On untreated half of paper", "setting": "snail, Cernuella virgata; [3]", "result": 23}, {"measurement": "consumption of the treated paper", "setting": "snail, Cernuella virgata; coated half of paper towel, 7 days", "result": "No consumption"}, {"measurement": "% Seeds damaged Broad beans After 7 days", "setting": "[2]", "result": 5, "unit": "%"}, {"measurement": "% Seeds damaged Pea seeds After 5 days", "setting": "[2]", "result": 7, "unit": "%"}, {"measurement": "% Seeds damaged Pea seeds After 7 days", "setting": "[2]", "result": 7, "unit": "%"}, {"measurement": "% Seeds damaged Wheat seeds After 5 days", "setting": "[2]", "result": 0, "unit": "%"}, {"measurement": "% Seeds damaged Wheat seeds After 7 days", "setting": "[2]", "result": 2, "unit": "%"}, {"measurement": "slug repellency for seeds (summary in words)", "setting": "[2]; wheat and pea seeds", "result": "very effective slug repellent"}]}
{"molecule": "[Cl-].[Cu+2].[Cu+2].[OH-].[OH-].[OH-]", "note": "[Copper oxychloride]", "values": [{"measurement": "LD50 (Rat)", "setting": "Rat", "result": 700, "unit": "mg/kg"}]}
{"molecule": "O=C([O-])C(=O)[O-].O=C([O-])C(=O)[O-].O=C([O-])C(=O)[O-].[Fe+3].[K+].[K+].[K+]", "note": "[Ferric potassium oxalate, ferric potassium oxalate]", "values": [{"measurement": "% Seeds damaged Broad beans After 7 days", "setting": "[2]", "result": 0, "unit": "%"}, {"measurement": "% Seeds damaged Pea seeds After 5 days", "setting": "[2]", "result": 15, "unit": "%"}, {"measurement": "% Seeds damaged Pea seeds After 7 days", "setting": "[2]", "result": 17, "unit": "%"}, {"measurement": "% Seeds damaged Wheat seeds After 5 days", "setting": "[2]", "result": 3, "unit": "%"}, {"measurement": "% Seeds damaged Wheat seeds After 7 days", "setting": "[2]", "result": 20, "unit": "%"}]}
{"molecule": "Copper acetate", "values": [{"measurement": "LD50 (Rat)", "setting": "Rat", "result": 595, "unit": "mg/kg"}]}
{"molecule": "cetyl tertiary ammonium bromide [CeTAB, reference compound]", "values": [{"measurement": "% Sector Eaten Control", "setting": "juvenile Helix aspersa; 0.2 mg/cm2, control sector of same arena", "result": "4% and 1% and 2%"}, {"measurement": "Final Position", "setting": "juvenile Helix aspersa; 0.2 mg/cm2, overnight", "result": "R"}, {"measurement": "% Sector Eaten Test", "setting": "juvenile Helix aspersa; 0.2 mg/cm2, test sector", "result": 0, "unit": "%"}, {"measurement": "% Covered Control", "setting": "juvenile Helix aspersa; 0.2 mg/cm2, trail cover of control sector of same arena", "result": "77.8% and 75.6% and 86.7%"}, {"measurement": "% Sector Eaten Control", "setting": "juvenile Helix aspersa; 2.0 mg/cm2, control sector of same arena", "result": "4% and 5% and 3%"}, {"measurement": "Final Position", "setting": "juvenile Helix aspersa; 2.0 mg/cm2, overnight", "result": "R"}, {"measurement": "% Sector Eaten Test", "setting": "juvenile Helix aspersa; 2.0 mg/cm2, test sector", "result": 0, "unit": "%"}, {"measurement": "% Covered Control", "setting": "juvenile Helix aspersa; 2.0 mg/cm2, trail cover of control sector of same arena", "result": "62.2% and 66.6% and 71.1%"}, {"measurement": "% Covered Test", "setting": "juvenile Helix aspersa; 2.0 mg/cm2, trail cover of test sector", "result": 0, "unit": "%"}, {"measurement": "repellency to snails (summary in words)", "setting": "juvenile Helix aspersa", "result": "act as a repellent"}]}
